According to PMC12503906, “Novel Pyrazolo [1,5‐a]−1,3,5‐Triazine Derivatives as CDK7 Inhibitors: Synthesis and Biological Insights in Pancreatic Ductal Adenocarcinoma Models” (Chemmedchem, 2025):
Read-outs that look alike come from different tables or passages of the source.

Key:
PANC‐1 [1] = experiment: SRB chemosensitivity assay, PANC‐1 cells; format: cell-based; settings: Homo sapiens, read-out: IC50 PANC‐1
Protocol: Three lines of immortalized PDAC cells were selected as representative phenotypes: mesenchymal (PATU‐T), quasimesenchymal (PANC‐1), and an epithelial clone of SUIT 2 cells (SUIT 2.28). Cells were cultured in noncoated T‐75 and T‐25 flasks under adherent conditions, using 1× DMEM (Gibco, 41,966,029) for PATU‐T and RPMI (Gibco, 21,875,034) for SUIT 2.28 and PANC‐1, both supplemented with 10% NBCS and 1% P/S. Additional employed models were the PDAC3 cells, a primary cell culture, the PSCs, which were immortalized healthy pancreatic cells, and the PATU‐T‐GR, which was a gemcitabine resistant model of PATU‐T. PDAC3 and PSCs were cultivated using complete RPMI medium, while PATU‐T‐GR required complete DMEM medium. For seeding, cells were detached with Trypsin‐EDTA (0.05%) (GibcoTM, 25,300–096) and were consequently counted using the Automated Cell Counter (Luna‐II, Westburg). Cells were then plated on 96‐ or 6‐well plates depending on the planned experiment.
The Sulforhodamine B (SRB) chemosensitivity assay was used to measure cytotoxicity and cell proliferation post drug treatment. At day 0, 3–6 × 10^3 cells were seeded in a 96‐well plate, depending on the cell line. At day 1, cells were attached and ready to be treated. For the calculation of the IC50, drug dilutions for the compounds 1b, 1c, 1d, 1e, 1g, 1hr, 1i, 1j, and LDC4297 (MedChemExpress, HY‐12,653) were prepared in dilution trays and eight different concentrations were included. These were added in triplicates to the cells, which were then incubated for […] at 37 °C in 5% CO2. During day 1, the control plate was fixed with 50% Trichloroacetic acid (TCA), as intended to be the baseline plate used for the normalization of the data. 72 h post‐treatment, the cells were fixed with TCA, and placed at 4 °C for about 2 h. The plates were then washed with distillated water and left to dry under the hood with ventilation. Subsequently, plates were stained with 0.4% SRB for 15 min and washed with 1% acetic acid to remove excess stain. Once dried again, the protein‐bound SRB was dissolved in 10 mM TRIS, and the plates were placed on a shaker for 10 min per plate. Lastly, the absorbance was measured at 492 nm with a spectrophotometer (Synergy HT, BioTek). The absorbance data obtained were normalized to the day 1 control, and the percentage of cell growth in relation to the control was calculated using the following formula. (1) %Cell growth=Mean OD treatment−Mean OD day0/Mean OD control−Mean OD day0×100
The percentage of proliferation and their respective standard deviations were used to perform statistical analysis in GraphPad Prism software v 10 (GraphPad Software, San Diego, CA). Data were normalized to the day 0 control and to their own untreated 72 h control. These were transformed into logarithmic data, and log(inhibitor) versus response analysis was performed for obtaining the IC50 values per cell lines. Each experiment was conducted in triplicates.

PATU‐T = experiment: Annexin V apoptosis assay, PATU‐T; format: cell-based; settings: 1 × IC50
Protocol: (§1) In order to investigate the apoptotic properties of the compounds 1b and 1g, the Annexin V apoptosis assay was performed. Annexins are calcium‐dependent phospholipid binding proteins, which are able to bind to phosphatidylserine (PS). The externalization of PS residues on the outer membrane of apoptotic cells can be detected by Annexin V.
(§2) For this assay, cells were seeded in a 96‐well plate at a concentration of 13.5 × 10^3 and 4.5 × 10^3 /well respectively for the 24 and 72 h experiments. The next day cells were treated with compounds 1b and 1g at 1 × IC50 and 4 × IC50 concentrations. The apoptosis assay was performed 24 and 72 h post‐treatment following the BD Pharmingen FITC Annexin V Apoptosis Detection Kit I (BD Biosciences, 556,547). The supernatant was aspirated, and cells were washed with phosphate‐buffered saline (PBS). Cells were consequently treated with binding buffer BBA + Annexin V (1:100) and were incubated in the dark at RT for 10 min. The supernatant was removed, and the cells were washed with BBA (1:10). Cells were then incubated with BBA + PI (1:100) and were immediately read with the spectrophotometer at ex. 485/ em. 535. Two different programs were used to read the Annexin V and the PI absorbance. Lastly, 100 µL of PBS were added to each well before being fixed with TCA. This was followed by the SRB assay to standardize fluorescence data according to cell count. Data were exported into GraphPad Prism 10 for statistical analysis.

PANC‐1 [2] = experiment: Annexin V apoptosis assay, PANC‐1; format: cell-based; settings: 1 × IC50
Protocol: as §1, §2

PDAC3 = experiment: Annexin V apoptosis assay, PDAC3; format: cell-based; settings: 1 × IC50
Protocol: as §1, §2

[3] = molecular target: phosphorylated CDK7 (p‐CDK7) (Homo sapiens, UniProt P50613); experiment: Phospho‐CDK7 (Thr170) cell‐based ELISA, SUIT 2.28; design: two PDAC preclinical models (SUIT 2.28 and PDAC3); endogenous in cells; host or cells: SUIT 2.28; settings: SUIT 2.28, 4 × IC50, ELISA
Chain of phosphorylated CDK7 (p‐CDK7) (P50613 2-346 limits assumed): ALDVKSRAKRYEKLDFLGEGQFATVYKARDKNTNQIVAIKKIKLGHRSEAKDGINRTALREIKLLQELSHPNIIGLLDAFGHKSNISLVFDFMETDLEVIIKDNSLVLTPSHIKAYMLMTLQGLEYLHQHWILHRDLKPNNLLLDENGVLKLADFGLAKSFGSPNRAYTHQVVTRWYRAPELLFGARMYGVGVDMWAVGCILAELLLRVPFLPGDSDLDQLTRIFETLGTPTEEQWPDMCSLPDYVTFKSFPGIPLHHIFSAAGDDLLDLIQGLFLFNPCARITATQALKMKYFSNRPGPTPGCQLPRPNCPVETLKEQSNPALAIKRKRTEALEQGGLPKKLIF
Chain of phosphorylated CDK7 (p‐CDK7) (P51946 whole entry partner): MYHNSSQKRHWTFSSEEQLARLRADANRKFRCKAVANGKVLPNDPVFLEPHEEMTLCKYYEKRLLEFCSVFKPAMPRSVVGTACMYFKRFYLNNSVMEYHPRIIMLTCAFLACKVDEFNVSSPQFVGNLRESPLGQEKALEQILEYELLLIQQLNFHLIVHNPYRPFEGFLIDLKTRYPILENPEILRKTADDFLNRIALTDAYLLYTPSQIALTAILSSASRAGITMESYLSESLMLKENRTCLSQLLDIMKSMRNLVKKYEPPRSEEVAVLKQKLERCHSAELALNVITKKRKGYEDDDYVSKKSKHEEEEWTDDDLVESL
Chain of phosphorylated CDK7 (p‐CDK7) (P51948 whole entry partner): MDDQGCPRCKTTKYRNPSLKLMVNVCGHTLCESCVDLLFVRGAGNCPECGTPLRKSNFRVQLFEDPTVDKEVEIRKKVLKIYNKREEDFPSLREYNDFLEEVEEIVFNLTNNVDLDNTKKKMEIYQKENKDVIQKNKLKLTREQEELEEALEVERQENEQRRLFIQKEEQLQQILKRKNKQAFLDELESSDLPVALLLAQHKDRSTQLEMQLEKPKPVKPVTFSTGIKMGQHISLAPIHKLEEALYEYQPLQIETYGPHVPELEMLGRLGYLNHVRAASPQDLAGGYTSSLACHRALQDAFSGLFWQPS
Protocol: To detect CDK7 and phospho‐CDK7 levels at Thr170 residue after treatment, an enzyme‐linked immunosorbent assay (Biomatik, Phospho‐CDK7 (Thr170) Colorimetric Cell‐Based ELISA Kit, Cat# EKA51274) was performed according to the manufacturer's protocols. […] The absorbance was read at 450 nm using a microplate reader.

`Nc1ncnc2cc(-c3c[nH]c4ccc(Br)cc34)nn12` [Compound 1b, 7‐(5‐Bromo‐1H‐indol‐3‐yl)pyrazolo[1,5‐a][1,3,5]triazin‐4‐amine] was tested, and the IC50 (PANC‐1 [1]; PANC-1, SRB, 72 h of treatment, average ± SEM, triplicate) was 4.3 ± 0.8 µM, the apoptotic index (PATU‐T; 24 h) was “did not show a significant apoptotic index” and the apoptotic index (PATU‐T; 72 h) was “significant increase in apoptotic index”. For the same compound, the apoptotic index (PANC‐1 [2]; PANC‐1, 24 h) was “did not show any significant increase in apoptotic index”, the apoptotic index (PANC‐1 [2]; PANC‐1, 72 h) was “significant increase in apoptotic index” and the apoptotic index (PDAC3; PDAC3, 24 h) was “significant increase in apoptotic index”. The apoptotic index (PDAC3; PDAC3, 72 h) was “continued to show a significant rise” and the “p‐CDK7 expression vs untreated” value [3] was “decrease in p‐CDK7 expression”.

`Cn1cc(-c2cc3ncnc(N)n3n2)c2cc(Br)ccc21` [Compound 1g, 7‐(5‐Bromo‐1‐methyl‐1H‐indol‐3‐yl)pyrazolo[1,5‐a][1,3,5]triazin‐4‐amine] was tested, and the IC50 (PANC‐1 [1]; PANC-1, 72 h) was 2.9 ± 0.8 µM, the apoptotic index (PATU‐T; 24 h) was “significantly increased apoptosis” and the apoptotic index (PATU‐T; 72 h) was “not significant compared to control”. For the same compound, the apoptotic index (PANC‐1 [2]; PANC‐1, 24 h) was “did not show any significant increase in apoptotic index”, the apoptotic index (PANC‐1 [2]; PANC‐1, 72 h) was “slight increase that was not statistically significant” and the apoptotic index (PDAC3; PDAC3, 24 h) was “significant increase in apoptotic index”. The apoptotic index (PDAC3; PDAC3, 72 h) was “continued to show a significant rise” and the “p‐CDK7 expression vs untreated” value [3] was “decrease in p‐CDK7 expression”.
